The values below are quoted from earlier work in US20130226549A1, “STRUCTURE-BASED FRAGMENT HOPPING FOR LEAD OPTIMIZATION AND IMPROVEMENT IN SYNTHETIC ACCESSIBILITY” (priority 2012, published 2013).

Like-named read-outs stand apart in the source and are kept apart here.

This data set deals with T1, human 5-LOX (Homo sapiens, UniProt P09917).
T1 sequence (P09917 1-674): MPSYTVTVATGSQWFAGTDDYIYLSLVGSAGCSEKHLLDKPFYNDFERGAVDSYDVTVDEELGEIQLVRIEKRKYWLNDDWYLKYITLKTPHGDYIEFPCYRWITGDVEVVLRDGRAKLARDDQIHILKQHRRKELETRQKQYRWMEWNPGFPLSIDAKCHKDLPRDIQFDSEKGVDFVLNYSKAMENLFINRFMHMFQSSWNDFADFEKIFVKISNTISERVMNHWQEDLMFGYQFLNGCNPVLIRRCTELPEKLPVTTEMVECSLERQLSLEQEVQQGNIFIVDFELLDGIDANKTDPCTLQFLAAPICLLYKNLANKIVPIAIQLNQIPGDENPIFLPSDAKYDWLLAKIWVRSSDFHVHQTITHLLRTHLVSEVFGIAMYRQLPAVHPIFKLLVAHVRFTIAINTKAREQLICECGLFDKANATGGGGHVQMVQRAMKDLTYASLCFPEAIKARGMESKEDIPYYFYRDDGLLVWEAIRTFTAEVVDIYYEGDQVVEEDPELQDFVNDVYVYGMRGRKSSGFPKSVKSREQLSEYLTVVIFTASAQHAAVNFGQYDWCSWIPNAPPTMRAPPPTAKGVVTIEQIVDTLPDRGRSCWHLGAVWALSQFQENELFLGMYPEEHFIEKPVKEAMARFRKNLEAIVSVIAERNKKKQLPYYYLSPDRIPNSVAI
Particulars: from the literature.

Where [1] appears, read: 5-LOX, LeadOp+R example, read-out: Inhibition IC50.

In the case of `O=c1cc(-c2ccc(F)cc2)c2ccc(CCc3ncc(C(O)(C(F)(F)F)C(F)(F)F)s3)cc2o1` [compound H], the IC50 (human 5-LOX, LeadOp example, read-out: IC50) is 64 nM. As to `CCC(O)(c1cnc(Sc2ccc3c(-c4ccc(F)cc4)cc(=O)oc3c2)s1)C(F)(F)F` (stereo not shown) [rB1], the IC50 under setting [1] is 7 ± 2 nM. With `O=c1cc(-c2ccc(F)cc2)c2ccc(CCc3ncc(C(O)(C(F)(F)F)C(F)(F)F)s3)cc2o1` [rB3], the concentration for half-maximal inhibition (IC50) under setting [1] is 64 ± 3 nM.

In the case of `CN(Cc1ccc2c(-c3ccc(F)cc3)cc(=O)oc2c1)c1ncc(C(O)(C(F)(F)F)C(F)(F)F)s1` [rB, reference compound], the IC50 under setting [1] is 145 nM.

A word on the IC50: it is the concentration at which inhibition is half-maximal.
